Changes are numbered by the printed parent chain.
Assays:
hT1R1 H71A = target: T1, hT1R1 H71A (Homo sapiens, UniProt Q7RTX1, H71A); experiment: Mutagenesis study, hT1R1 mutant H71A; format: cell-based; details: H71 mutation
T1 construct: expressed in transfected cells; host or cells: HEK293, transient transfection
T1 sequence (Q7RTX1 21-841 H71A): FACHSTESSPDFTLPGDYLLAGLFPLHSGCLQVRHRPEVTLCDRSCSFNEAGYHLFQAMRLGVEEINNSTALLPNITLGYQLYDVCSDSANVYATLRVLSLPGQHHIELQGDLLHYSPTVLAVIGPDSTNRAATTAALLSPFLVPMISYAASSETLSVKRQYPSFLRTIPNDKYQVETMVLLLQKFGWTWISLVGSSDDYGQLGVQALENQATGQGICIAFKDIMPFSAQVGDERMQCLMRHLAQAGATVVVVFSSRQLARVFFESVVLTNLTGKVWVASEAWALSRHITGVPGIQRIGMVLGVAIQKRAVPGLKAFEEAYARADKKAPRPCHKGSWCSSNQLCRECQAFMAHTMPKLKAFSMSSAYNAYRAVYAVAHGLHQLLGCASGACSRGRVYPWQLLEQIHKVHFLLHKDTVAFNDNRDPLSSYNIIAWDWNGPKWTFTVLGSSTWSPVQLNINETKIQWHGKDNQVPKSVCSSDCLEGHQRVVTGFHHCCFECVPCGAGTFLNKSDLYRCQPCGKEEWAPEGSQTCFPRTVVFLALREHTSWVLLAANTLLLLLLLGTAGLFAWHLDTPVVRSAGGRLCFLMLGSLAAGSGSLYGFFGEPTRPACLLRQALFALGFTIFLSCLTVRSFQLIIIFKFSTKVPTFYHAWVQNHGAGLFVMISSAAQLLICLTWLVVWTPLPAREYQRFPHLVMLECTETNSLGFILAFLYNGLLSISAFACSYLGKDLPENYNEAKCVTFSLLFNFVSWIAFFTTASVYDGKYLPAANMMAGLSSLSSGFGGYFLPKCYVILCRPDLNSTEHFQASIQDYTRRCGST
T1 sequence (Q923K1 21-858 partner): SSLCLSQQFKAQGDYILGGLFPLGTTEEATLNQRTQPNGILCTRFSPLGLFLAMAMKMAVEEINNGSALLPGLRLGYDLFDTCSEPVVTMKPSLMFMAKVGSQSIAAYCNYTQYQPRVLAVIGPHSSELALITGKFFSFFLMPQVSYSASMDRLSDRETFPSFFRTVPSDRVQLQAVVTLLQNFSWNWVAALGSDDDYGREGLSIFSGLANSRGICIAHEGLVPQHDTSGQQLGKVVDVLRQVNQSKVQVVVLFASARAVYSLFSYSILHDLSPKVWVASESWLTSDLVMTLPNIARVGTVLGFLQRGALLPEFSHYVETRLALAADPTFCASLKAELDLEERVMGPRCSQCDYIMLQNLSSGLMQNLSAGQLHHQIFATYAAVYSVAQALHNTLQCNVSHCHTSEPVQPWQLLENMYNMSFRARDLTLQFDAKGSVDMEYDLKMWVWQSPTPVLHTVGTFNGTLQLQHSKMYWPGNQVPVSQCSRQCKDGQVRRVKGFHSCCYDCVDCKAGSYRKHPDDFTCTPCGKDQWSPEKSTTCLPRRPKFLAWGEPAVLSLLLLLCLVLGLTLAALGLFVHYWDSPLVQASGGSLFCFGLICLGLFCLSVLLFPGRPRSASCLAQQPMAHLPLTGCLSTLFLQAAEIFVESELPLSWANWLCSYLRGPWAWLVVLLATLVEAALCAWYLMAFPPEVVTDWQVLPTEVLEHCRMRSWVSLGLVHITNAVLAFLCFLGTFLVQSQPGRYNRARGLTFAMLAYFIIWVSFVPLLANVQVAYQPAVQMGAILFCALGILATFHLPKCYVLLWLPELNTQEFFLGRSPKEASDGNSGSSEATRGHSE
Text: (§1) In order to further define the interaction sites of umami stimuli, we performed site-directed mutagenesis on human T1R1 VFT. The mutagenesis was done using the routine PCR-based method. […] were transiently transfected into HEK293 cell together with the rat T1R3 wild type cDNA, and the transfected cells were characterized using an automated FLIPR machine or a calcium imaging system as described in our previous patent applications.

hT1R1 T149S = target: T2, hT1R1 T149S (Homo sapiens, UniProt Q7RTX1, T149S); experiment: Mutagenesis study, hT1R1 mutant T149S; format: cell-based; details: 0.25 mM of L-Glu, FIG. 12
T2 construct: expressed in transfected cells; host or cells: HEK293, transient transfection
T2 sequence (Q7RTX1 21-841 T149S): T1 sequence (Q7RTX1 21-841 H71A) with A51H, T129S
T2 sequence (Q923K1 21-858 partner): T1 sequence (Q923K1 21-858 partner)
Text: as §1

| SMILES | enhancement activity of GMP (hT1R1 H71A) | activity against L-Glu compared to the wild type (hT1R1 T149S) |
| --- | --- | --- |
| Nc1nc2c(ncn2[C@@H]2O[C@H](COP(=O)(O)O)[C@@H](O)[C@H]2O)c(=O)[nH]1 [GMP, guanosine-5′-monophosphate] | similarly affected | – |
| N[C@@H](CCC(=O)O)C(=O)O [L-Glu, L-glutamate] | – | increased activity |
